Assay results from patent US20190343749A1, “PROTECTANTS” (Lincoln Manufacturing Inc., priority 2018, published 2019).

Tested on: mixture of bacteria
Assay: CTFA Preservative Challenge Test on a shampoo
Assay type: cell-based
Conditions: for Mixed Bacteria Day 7 Count / Mixed Bacteria Day 14 Count: shampoo containing the sample, initial count 4×10^6 cfu/mL; for kill reduction: shampoo, mixed bacteria
Description: The CTFA Preservative Challenge Test was performed on a shampoo containing the samples below against a mixture of bacteria having an initial count of 4×10^6 cfu/mL. The shampoos inoculated with bacteria were allowed to stand for 7 or 14 days. The samples were evaluated for surviving organisms on day 7 or day 14 for bacteria-innoculated shampoos.
E. Kull et al., “Mixtures of Quaternary Ammonium Compounds and Long-chain Fatty Acids as Antifungal Agents”, Applied Microbiology, 9:538-541 (1961). The synergism value (QA/Qa+QB/Qb) was determined. […] Qb is the concentration of pircotine olamine alone (in percent by weight) required to yield 100% retardation of the bacteria. When the value of (QA/Qa +QB/Qb) is less than one, the mixture is synergistic. Values for (QA/Qa+QB/Qb) of 1 and greater represent an additive effect and an antagonistic effect, respectively.

Question: What does the source list for Cc1cc(CC(C)CC(C)(C)C)n(O)c(=O)c1.NCCO (centres unmarked) [0.1% Piroctone olamine, piroctone olamine]?
Answer: concentration alone required to yield 100% retardation of the bacteria (Qa, Qb) (percent by weight in shampoo, plate count <10 cfu/g after 14 days): > 0.1%; Mixed Bacteria Day 7 Count (day 7): 1.2 × 10^5 cfu/mL; Mixed Bacteria Day 14 Count (day 14): 1.3 × 10^5 cfu/mL; kill reduction (day 7): (<97% kill reduction); kill reduction (day 14): (<97% kill reduction)

Question: CCCCCCCCCCCCCCCC[n+]1ccccc1 [1% cetylpyridinium chloride, cetylpyridinium chloride] was tested. Which “Mixed Bacteria Day 14 Count” value (day 14) did it give?
Answer: 7 × 10^3 cfu/mL

Question: What does the source list for COc1ccc(C(=O)[O-])cc1.[Na+] [1% sodium p-anisate, sodium p-anisate]?
Answer: Mixed Bacteria Day 7 Count (day 7): 2.3 × 10^4 cfu/mL; kill reduction (day 7): (<99% kill reduction)
